Measurements as given in patent US12157741B2, “Macrocyclic inhibitors of DYRK1A” (DANA-FARBER CANCER INSTITUTE, INC., priority 2018, dated 2024).
Where two headings read alike, the source gives them in different places.

Assays:
Assay type in all cases: binding
various enzymes [1] = target: various enzymes (Homo sapiens, UniProt P27448); conditions: compound 1 uM
Experimental: (§1) Ambit profiling was conducted in accordance with the manufacturer's instructions.

various enzymes [2] = target: various enzymes (Homo sapiens, UniProt Q9BWU1); conditions: compound 1 uM
Experimental: as §1

various enzymes [3] = target: various enzymes (Homo sapiens, UniProt Q52WX2); conditions: compound 1 uM
Experimental: as §1

various enzymes [4] = target: various enzymes (Homo sapiens, UniProt Q9H0K1); conditions: compound 1 uM
various enzymes (Homo sapiens, UniProt Q9H0K1), sequence (Q9H0K1 whole entry): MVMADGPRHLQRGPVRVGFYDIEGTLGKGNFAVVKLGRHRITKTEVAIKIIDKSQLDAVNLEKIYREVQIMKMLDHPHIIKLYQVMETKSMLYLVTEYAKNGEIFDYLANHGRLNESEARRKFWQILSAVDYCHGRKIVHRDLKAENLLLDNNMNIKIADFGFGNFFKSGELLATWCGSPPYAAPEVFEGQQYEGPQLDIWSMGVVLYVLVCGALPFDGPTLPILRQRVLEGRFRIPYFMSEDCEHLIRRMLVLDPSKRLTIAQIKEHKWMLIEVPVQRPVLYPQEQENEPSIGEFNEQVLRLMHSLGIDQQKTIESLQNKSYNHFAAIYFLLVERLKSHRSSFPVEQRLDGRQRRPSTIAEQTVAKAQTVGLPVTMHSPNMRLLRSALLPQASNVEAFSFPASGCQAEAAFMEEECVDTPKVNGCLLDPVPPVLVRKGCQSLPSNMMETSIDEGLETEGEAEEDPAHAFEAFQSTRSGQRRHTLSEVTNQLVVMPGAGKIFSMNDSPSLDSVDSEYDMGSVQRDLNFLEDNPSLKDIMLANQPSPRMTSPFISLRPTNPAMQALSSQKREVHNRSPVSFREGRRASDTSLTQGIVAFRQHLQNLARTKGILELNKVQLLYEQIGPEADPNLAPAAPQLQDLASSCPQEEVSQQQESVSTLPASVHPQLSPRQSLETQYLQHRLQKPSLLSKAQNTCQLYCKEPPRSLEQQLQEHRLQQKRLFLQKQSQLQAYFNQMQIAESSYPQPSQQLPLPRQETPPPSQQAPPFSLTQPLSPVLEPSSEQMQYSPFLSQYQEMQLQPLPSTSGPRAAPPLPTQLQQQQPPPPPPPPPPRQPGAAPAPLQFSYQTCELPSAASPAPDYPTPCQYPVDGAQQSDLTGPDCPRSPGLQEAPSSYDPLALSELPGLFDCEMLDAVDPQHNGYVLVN
Experimental: as §1

various enzymes [5] = target: various enzymes (Homo sapiens, UniProt P28482); conditions: compound 1 uM
Experimental: as §1

various enzymes [6] = target: various enzymes (Homo sapiens, UniProt Q9P1W9); conditions: compound 1 uM
various enzymes (Homo sapiens, UniProt Q9P1W9), sequence (Q9P1W9 whole entry): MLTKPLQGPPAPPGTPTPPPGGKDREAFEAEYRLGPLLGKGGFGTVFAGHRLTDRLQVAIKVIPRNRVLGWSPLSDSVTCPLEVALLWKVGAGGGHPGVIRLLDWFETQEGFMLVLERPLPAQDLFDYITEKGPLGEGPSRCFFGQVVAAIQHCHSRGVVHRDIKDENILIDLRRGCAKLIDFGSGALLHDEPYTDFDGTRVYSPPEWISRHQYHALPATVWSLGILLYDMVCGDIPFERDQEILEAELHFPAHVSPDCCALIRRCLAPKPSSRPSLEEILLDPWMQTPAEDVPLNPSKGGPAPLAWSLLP
Experimental: as §1

various enzymes [7] = target: various enzymes (Homo sapiens, UniProt P07949, V804M)
Experimental: as §1

various enzymes [8] = target: various enzymes (Homo sapiens, UniProt P08581, M1250T)
Experimental: as §1

various enzymes [9] = target: various enzymes (Homo sapiens, UniProt P36896); conditions: compound 1 uM
Experimental: as §1

various enzymes [10] = target: various enzymes (Homo sapiens, UniProt P54762); conditions: compound 1 uM
Experimental: as §1

various enzymes [11] = target: various enzymes (Homo sapiens, UniProt P07949, M918T)
Experimental: as §1

various enzymes [12] = target: various enzymes (Homo sapiens, UniProt Q16659); conditions: compound 1 uM
various enzymes (Homo sapiens, UniProt Q16659), sequence (Q16659 whole entry): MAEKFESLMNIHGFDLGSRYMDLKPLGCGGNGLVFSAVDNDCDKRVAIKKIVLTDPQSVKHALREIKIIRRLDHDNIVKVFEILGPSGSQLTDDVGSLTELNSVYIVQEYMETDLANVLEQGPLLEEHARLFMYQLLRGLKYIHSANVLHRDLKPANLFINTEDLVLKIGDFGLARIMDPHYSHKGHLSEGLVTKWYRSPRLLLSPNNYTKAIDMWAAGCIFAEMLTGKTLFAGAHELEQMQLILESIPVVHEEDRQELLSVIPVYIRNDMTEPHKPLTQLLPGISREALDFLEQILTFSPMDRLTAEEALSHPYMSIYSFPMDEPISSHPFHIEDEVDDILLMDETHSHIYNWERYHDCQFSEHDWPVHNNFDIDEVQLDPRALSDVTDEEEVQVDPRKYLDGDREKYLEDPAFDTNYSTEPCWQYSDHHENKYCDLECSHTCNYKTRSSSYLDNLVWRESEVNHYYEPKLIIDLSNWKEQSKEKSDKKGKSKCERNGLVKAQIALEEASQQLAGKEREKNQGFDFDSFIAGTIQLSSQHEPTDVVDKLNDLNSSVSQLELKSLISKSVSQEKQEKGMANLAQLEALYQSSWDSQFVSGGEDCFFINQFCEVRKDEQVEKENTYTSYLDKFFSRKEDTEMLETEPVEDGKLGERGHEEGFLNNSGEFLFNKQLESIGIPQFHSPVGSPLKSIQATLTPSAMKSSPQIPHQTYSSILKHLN
Experimental: as §1

various enzymes [13] = target: T1, various enzymes (Homo sapiens, UniProt P29323); conditions: compound 1 uM
T1 sequence (P29323 19-1055): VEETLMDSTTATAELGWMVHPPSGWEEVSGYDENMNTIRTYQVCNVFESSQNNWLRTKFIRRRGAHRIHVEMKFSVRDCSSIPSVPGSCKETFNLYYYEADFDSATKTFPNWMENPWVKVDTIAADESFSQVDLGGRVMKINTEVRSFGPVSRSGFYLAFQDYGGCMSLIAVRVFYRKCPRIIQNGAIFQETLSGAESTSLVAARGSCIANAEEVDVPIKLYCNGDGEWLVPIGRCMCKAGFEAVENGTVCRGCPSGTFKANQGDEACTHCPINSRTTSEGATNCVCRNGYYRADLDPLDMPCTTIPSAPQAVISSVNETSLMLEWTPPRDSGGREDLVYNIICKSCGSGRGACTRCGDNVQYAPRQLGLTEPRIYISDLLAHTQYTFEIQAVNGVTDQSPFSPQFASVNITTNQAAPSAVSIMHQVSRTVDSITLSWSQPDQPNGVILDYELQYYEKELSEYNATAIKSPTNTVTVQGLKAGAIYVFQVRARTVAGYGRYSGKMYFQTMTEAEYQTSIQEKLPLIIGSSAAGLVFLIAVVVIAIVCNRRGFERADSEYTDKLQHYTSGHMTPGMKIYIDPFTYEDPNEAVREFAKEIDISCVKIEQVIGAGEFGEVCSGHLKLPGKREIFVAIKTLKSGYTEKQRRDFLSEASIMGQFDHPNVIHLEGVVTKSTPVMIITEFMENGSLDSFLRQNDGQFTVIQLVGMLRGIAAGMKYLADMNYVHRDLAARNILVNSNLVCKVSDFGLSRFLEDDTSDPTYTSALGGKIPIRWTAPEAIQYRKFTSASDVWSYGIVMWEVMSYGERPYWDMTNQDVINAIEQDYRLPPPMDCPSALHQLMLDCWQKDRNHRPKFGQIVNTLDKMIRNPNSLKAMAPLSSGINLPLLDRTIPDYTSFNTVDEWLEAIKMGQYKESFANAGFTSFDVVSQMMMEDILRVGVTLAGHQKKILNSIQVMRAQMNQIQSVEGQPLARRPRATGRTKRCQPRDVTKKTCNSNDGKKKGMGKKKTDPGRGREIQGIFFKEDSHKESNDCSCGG
Experimental: as §1

various enzymes [14] = target: various enzymes (Homo sapiens, UniProt P48729); conditions: compound 1 uM
various enzymes (Homo sapiens, UniProt P48729), sequence (P48729 whole entry): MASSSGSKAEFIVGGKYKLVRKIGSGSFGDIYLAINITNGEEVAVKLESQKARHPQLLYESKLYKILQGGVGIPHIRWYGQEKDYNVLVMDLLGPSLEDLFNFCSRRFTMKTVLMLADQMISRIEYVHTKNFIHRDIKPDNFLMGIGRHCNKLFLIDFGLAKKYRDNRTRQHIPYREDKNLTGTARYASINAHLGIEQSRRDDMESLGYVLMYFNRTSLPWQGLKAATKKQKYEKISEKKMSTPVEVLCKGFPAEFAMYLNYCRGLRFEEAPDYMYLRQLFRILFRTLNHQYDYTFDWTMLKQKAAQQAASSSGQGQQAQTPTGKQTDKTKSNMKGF
Experimental: as §1

various enzymes [15] = target: various enzymes (Homo sapiens, UniProt Q15835); conditions: compound 1 uM
Experimental: as §1

various enzymes [16] = target: various enzymes (Homo sapiens, UniProt Q9P2K8, S808G)
Experimental: as §1

various enzymes [17] = target: various enzymes (Homo sapiens, UniProt P43403); conditions: compound 1 uM
various enzymes (Homo sapiens, UniProt P43403), sequence (P43403 whole entry): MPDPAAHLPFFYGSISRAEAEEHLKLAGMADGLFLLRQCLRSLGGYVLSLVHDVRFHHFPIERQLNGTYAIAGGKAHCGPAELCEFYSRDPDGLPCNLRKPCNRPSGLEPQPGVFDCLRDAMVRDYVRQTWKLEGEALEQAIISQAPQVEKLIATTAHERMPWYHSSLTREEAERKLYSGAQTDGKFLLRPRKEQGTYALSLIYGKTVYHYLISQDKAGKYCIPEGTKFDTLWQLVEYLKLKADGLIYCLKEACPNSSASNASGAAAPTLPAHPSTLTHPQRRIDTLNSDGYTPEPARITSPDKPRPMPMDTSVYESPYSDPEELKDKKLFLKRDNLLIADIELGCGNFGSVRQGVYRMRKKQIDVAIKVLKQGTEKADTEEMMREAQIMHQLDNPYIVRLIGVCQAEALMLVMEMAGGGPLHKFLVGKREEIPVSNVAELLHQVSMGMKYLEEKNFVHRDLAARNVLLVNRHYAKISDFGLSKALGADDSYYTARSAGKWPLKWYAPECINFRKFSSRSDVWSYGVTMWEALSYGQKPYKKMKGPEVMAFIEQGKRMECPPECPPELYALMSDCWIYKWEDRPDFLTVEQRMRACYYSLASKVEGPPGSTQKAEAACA
Experimental: as §1

various enzymes [18] = target: various enzymes (Homo sapiens, UniProt Q96PN8); conditions: compound 1 uM
various enzymes (Homo sapiens, UniProt Q96PN8), sequence (Q96PN8 whole entry): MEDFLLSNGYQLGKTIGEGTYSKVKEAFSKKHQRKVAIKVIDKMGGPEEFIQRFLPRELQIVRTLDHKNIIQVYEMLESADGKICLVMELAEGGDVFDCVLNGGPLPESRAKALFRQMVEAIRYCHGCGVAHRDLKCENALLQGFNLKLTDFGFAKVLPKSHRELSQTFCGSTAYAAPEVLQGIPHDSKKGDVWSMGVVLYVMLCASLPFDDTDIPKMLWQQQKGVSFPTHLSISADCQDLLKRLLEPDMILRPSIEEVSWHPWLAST
Experimental: as §1

various enzymes [19] = target: various enzymes (Homo sapiens, UniProt Q8IYT8); conditions: compound 1 uM
Experimental: as §1

various enzymes [20] = target: various enzymes (Homo sapiens, UniProt P78362); conditions: compound 1 uM
Experimental: as §1

various enzymes [21] = target: various enzymes (Homo sapiens, UniProt P53779); conditions: compound 1 uM
Experimental: as §1

various enzymes [22] = target: various enzymes (Homo sapiens, UniProt O14965); conditions: compound 1 uM
various enzymes (Homo sapiens, UniProt O14965), sequence (O14965 whole entry): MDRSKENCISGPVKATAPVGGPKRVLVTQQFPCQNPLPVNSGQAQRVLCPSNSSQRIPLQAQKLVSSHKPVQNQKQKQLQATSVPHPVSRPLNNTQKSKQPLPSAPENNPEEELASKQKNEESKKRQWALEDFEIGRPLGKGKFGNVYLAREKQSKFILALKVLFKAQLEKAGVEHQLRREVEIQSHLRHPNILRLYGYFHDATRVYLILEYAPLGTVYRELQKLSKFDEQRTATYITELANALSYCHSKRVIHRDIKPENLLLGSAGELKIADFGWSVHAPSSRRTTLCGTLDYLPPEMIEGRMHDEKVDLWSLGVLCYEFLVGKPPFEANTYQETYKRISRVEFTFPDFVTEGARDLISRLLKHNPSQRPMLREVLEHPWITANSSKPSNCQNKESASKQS
Experimental: as §1

various enzymes [23] = target: various enzymes (Homo sapiens, UniProt P10721, D816H)
Experimental: as §1

various enzymes [24] = target: various enzymes (Homo sapiens, UniProt O76039); conditions: compound 1 uM
Experimental: as §1

various enzymes [25] = target: various enzymes (Homo sapiens, UniProt Q8TBX8); conditions: compound 1 uM
Experimental: as §1

various enzymes [26] = target: various enzymes (Homo sapiens, UniProt Q9HAZ1); conditions: compound 1 uM
Experimental: as §1

various enzymes [27] = target: various enzymes (Homo sapiens, UniProt P0C264); conditions: compound 1 uM
Experimental: as §1

various enzymes [28] = target: various enzymes (Homo sapiens, UniProt P06239); conditions: compound 1 uM
various enzymes (Homo sapiens, UniProt P06239), sequence (P06239 whole entry): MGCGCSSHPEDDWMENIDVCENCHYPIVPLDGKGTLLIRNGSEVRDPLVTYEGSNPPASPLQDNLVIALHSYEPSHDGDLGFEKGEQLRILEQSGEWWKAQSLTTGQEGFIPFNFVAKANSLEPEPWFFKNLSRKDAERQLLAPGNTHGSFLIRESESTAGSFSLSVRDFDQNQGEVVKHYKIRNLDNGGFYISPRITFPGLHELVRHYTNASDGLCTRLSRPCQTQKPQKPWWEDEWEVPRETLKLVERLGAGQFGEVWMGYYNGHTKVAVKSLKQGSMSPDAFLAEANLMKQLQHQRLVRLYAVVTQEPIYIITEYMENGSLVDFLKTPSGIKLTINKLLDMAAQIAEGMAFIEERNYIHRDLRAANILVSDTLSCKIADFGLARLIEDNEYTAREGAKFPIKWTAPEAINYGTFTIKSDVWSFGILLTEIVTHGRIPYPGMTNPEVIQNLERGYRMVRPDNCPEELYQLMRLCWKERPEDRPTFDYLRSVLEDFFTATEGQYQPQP
Experimental: as §1

various enzymes [29] = target: various enzymes (Homo sapiens, UniProt O00506); conditions: compound 1 uM
Experimental: as §1

various enzymes [30] = target: various enzymes (Homo sapiens, UniProt P24723); conditions: compound 1 uM
various enzymes (Homo sapiens, UniProt P24723), sequence (P24723 whole entry): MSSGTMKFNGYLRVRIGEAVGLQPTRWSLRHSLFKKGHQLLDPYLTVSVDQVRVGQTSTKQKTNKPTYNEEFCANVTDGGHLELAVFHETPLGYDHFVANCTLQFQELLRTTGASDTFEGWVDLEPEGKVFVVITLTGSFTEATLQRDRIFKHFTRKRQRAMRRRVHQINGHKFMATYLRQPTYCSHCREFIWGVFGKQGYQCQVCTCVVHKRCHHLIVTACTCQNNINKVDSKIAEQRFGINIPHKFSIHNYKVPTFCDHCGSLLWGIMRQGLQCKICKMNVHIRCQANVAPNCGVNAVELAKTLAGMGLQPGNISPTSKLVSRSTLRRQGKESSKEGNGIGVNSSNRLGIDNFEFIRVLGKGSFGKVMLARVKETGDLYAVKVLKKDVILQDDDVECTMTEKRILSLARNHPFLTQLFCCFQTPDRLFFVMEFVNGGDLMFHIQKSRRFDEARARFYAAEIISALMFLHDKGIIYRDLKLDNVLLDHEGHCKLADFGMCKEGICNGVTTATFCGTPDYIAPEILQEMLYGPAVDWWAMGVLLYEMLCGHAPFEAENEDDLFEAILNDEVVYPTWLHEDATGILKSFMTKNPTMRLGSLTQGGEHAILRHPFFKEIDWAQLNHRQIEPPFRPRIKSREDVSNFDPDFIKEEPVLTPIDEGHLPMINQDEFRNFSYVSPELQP
Experimental: as §1

Compound	Ambit profiling: MARK3 (various enzymes [1])	Ambit profiling: CDK11 (various enzymes [2])	Ambit profiling: SBK1 (various enzymes [3])	Ambit profiling: SIK2 (various enzymes [4])	Ambit profiling: ERK2 (various enzymes [5])	Ambit profiling: PIM2 (various enzymes [6])	Ambit profiling: ACVR1B (various enzymes [9])	Ambit profiling: EPHB1 (various enzymes [10])	Ambit profiling: ERK3 (various enzymes [12])	Ambit profiling: EPHB2 (various enzymes [13])	Ambit profiling: CSNK1A1 (various enzymes [14])	Ambit profiling: GRK1 (various enzymes [15])	Ambit profiling: ZAP70 (various enzymes [17])	Ambit profiling: TSSK3 (various enzymes [18])	Ambit profiling: ULK2 (various enzymes [19])	Ambit profiling: SRPK2 (various enzymes [20])	Ambit profiling: JNK3 (various enzymes [21])	Ambit profiling: AURKA (various enzymes [22])	Ambit profiling: CDKL5 (various enzymes [24])	Ambit profiling: PIP5K2C (various enzymes [25])	further results
CC(C)N1Cc2nn(C)cc2-c2cnc3[nH]cc(c3c2)-c2cn(nc2C(F)(F)F)CCCC1=O [Compound 45, (Z)-5-isopropyl-31-methyl-13-(trifluoromethyl)-11H,21H,31H-5-aza-2(3,5)-pyrrolo[2,3-b]pyridina-1(4,1),3(4,3)-dipyrazolacyclononaphan-6-one]	32	100	100	27	100	100	89	51	100	77	78	17	83	90	56	100	29	0.6	68	100	Ambit profiling: RET(V804M) (various enzymes [7]; compound 1 uM): 8.2; Ambit profiling: MET(M1250T) (various enzymes [8]; compound 1 uM): 4.3; Ambit profiling: RET(M918T) (various enzymes [11]; compound 1 uM): 0.2; Ambit profiling: GCN2(Kin.Dom.2, S808G) (various enzymes [16]; compound 1 uM): 100; Ambit profiling: KIT(D816H) (various enzymes [23]; compound 1 uM): 35; Ambit profiling: CLK4 (various enzymes [26]): 19; Ambit profiling: SgK110 (various enzymes [27]): 98; Ambit profiling: LCK (various enzymes [28]): 0.65; Ambit profiling: YSK1 (various enzymes [29]): 38; Ambit profiling: PRKCH (various enzymes [30]): 100
COc1c2c(nn1C)CN(C(C)C)C(=O)CCCn1cc(c(C(F)(F)F)n1)-c1c[nH]c3ncc-2cc13 [Compound 50, (Z)-5-isopropyl-35-methoxy-31-methyl-13-(trifluoromethyl)-11H,21H,31H-5-aza-2(3,5)-pyrrolo[2,3-b]pyridina-1(4,1),3(4,3)-dipyrazolacyclononaphan-6-one]	43	49	98	32	87	100	57	48	69	55	74	44	100	100	96	74	8.8	15	100	20	Ambit profiling: RET(V804M) (various enzymes [7]): 6; Ambit profiling: MET(M1250T) (various enzymes [8]): 4.2; Ambit profiling: RET(M918T) (various enzymes [11]): 0.25; Ambit profiling: GCN2(Kin.Dom.2, S808G) (various enzymes [16]): 100; Ambit profiling: KIT(D816H) (various enzymes [23]): 4.5; Ambit profiling: CLK4 (various enzymes [26]): 17; Ambit profiling: SgK110 (various enzymes [27]): 99; Ambit profiling: LCK (various enzymes [28]): 1.9; Ambit profiling: YSK1 (various enzymes [29]): 25; Ambit profiling: PRKCH (various enzymes [30]): 85
